Measured values as given in PubChem BioAssay (NCI).
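At the GI50, growth is halved. Definition used: TGI = concentration required for complete inhibition of growth.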

Key:
Test in all cases: NCI-60 cell line screen, 384-well format
SF-539 CNS = test system: SF-539 CNS
HCT-15 colon = test system: HCT-15 colon
OVCAR-4 ovarian = test system: OVCAR-4 ovarian
MDA-MB-435 melanoma = test system: MDA-MB-435 melanoma
NCI-H322M lung = test system: NCI-H322M lung
ACHN renal = test system: ACHN renal
SK-MEL-5 melanoma = test system: SK-MEL-5 melanoma
HCC-2998 colon = test system: HCC-2998 colon
M14 melanoma = test system: M14 melanoma
OVCAR-3 ovarian = test system: OVCAR-3 ovarian
K-562 leukemia = test system: K-562 leukemia
UACC-257 melanoma = test system: UACC-257 melanoma
A498 renal = test system: A498 renal
SK-MEL-28 melanoma = test system: SK-MEL-28 melanoma
NCI-H460 NSCLC = test system: NCI-H460 NSCLC
T-47D breast = test system: T-47D breast
OVCAR-8 ovarian = test system: OVCAR-8 ovarian
SN12C renal = test system: SN12C renal
A549 NSCLC = test system: A549 NSCLC
LOX IMVI melanoma = test system: LOX IMVI melanoma
SNB-19 CNS = test system: SNB-19 CNS
SK-OV-3 ovarian = test system: SK-OV-3 ovarian
NCI/ADR-RES ovarian = test system: NCI/ADR-RES ovarian
DU-145 prostate = test system: DU-145 prostate
HOP-92 NSCLC = test system: HOP-92 NSCLC
HOP-62 NSCLC = test system: HOP-62 NSCLC
RXF 393 renal = test system: RXF 393 renal
KM12 colon = test system: KM12 colon
SW-620 colon = test system: SW-620 colon
UO-31 renal = test system: UO-31 renal
NCI-H23 lung = test system: NCI-H23 lung
BT-549 breast = test system: BT-549 breast
CAKI-1 renal = test system: CAKI-1 renal
MDA-MB-231 breast = test system: MDA-MB-231 breast
786-0 renal = test system: 786-0 renal
NCI-H522 lung = test system: NCI-H522 lung
MOLT-4 leukemia = test system: MOLT-4 leukemia
CCRF-CEM leukemia = test system: CCRF-CEM leukemia
MALME-3M melanoma = test system: MALME-3M melanoma
SK-MEL-2 melanoma = test system: SK-MEL-2 melanoma
HL-60(TB) leukemia = test system: HL-60(TB) leukemia
U251 glioblastoma = test system: U251 glioblastoma
UACC-62 melanoma = test system: UACC-62 melanoma
MDA-MB-468 breast = test system: MDA-MB-468 breast
HT29 colon = test system: HT29 colon
SF-295 CNS = test system: SF-295 CNS
SR leukemia = test system: SR leukemia
IGROV1 ovarian = test system: IGROV1 ovarian
OVCAR-5 ovarian = test system: OVCAR-5 ovarian
COLO 205 colon = test system: COLO 205 colon
MCF7 breast = test system: MCF7 breast
PC-3 prostate = test system: PC-3 prostate
NCI-H226 lung = test system: NCI-H226 lung
TK-10 renal = test system: TK-10 renal
HCT-116 colon = test system: HCT-116 colon
SF-268 CNS = test system: SF-268 CNS
RPMI-8226 leukemia = test system: RPMI-8226 leukemia

## Cc1c(COc2cc(OCc3cccc(C#N)c3)c(CN3C[C@H](O)C[C@@H]3C(=O)O)cc2Cl)cccc1-c1ccc2c(c1)OCCO2
SF-539 CNS
  GI50: 3.25 µM
  TGI: 11.6 µM
HCT-15 colon
  GI50: 4.4 µM
  TGI: 14.8 µM
OVCAR-4 ovarian
  GI50: 4.03 µM
  TGI: 16 µM
MDA-MB-435 melanoma
  GI50: 4.35 µM
  TGI: 14.2 µM
NCI-H322M lung
  GI50: 7.65 µM
  TGI: 20.2 µM
ACHN renal
  GI50: 10.4 µM
  TGI: 22.3 µM
SK-MEL-5 melanoma
  GI50: 1720 nM
  TGI: 4.31 µM
HCC-2998 colon
  GI50: 1470 nM
  TGI: 3.59 µM
M14 melanoma
  GI50: 3.64 µM
  TGI: 11.6 µM
OVCAR-3 ovarian
  GI50: 2.37 µM
  TGI: 6.1 µM
K-562 leukemia
  GI50: 3.46 µM
  TGI: 12.1 µM
UACC-257 melanoma
  GI50: 2630 nM
  TGI: 8.02 µM
A498 renal
  GI50: 3.27 µM
  TGI: 11.7 µM
SK-MEL-28 melanoma
  GI50: 2710 nM
  TGI: 7.55 µM
NCI-H460 NSCLC
  GI50: 3.45 µM
  TGI: 12.4 µM
T-47D breast
  GI50: 2.97 µM
  TGI: 12.9 µM
OVCAR-8 ovarian
  GI50: 4.21 µM
  TGI: 15.5 µM
SN12C renal
  GI50: 5.41 µM
  TGI: 16.4 µM
A549 NSCLC
  GI50: 10.6 µM
  TGI: 22.5 µM
LOX IMVI melanoma
  GI50: 2680 nM
  TGI: 6.63 µM
SNB-19 CNS
  GI50: 4.11 µM
  TGI: 13.5 µM
SK-OV-3 ovarian
  GI50: 5.17 µM
  TGI: 16.3 µM
NCI/ADR-RES ovarian
  GI50: 77.7 µM
  TGI: > 100 µM
DU-145 prostate
  GI50: 7.96 µM
  TGI: 20.5 µM
HOP-92 NSCLC
  GI50: 2400 nM
  TGI: 6 µM
HOP-62 NSCLC
  GI50: 3.97 µM
  TGI: 15.4 µM
RXF 393 renal
  GI50: 1410 nM
  TGI: 3.5 µM
KM12 colon
  GI50: 3.38 µM
  TGI: 10.9 µM
SW-620 colon
  GI50: 5.44 µM
  TGI: 17 µM
UO-31 renal
  GI50: 1930 nM
  TGI: 3.79 µM
NCI-H23 lung
  GI50: 10.4 µM
  TGI: 22.2 µM
BT-549 breast
  GI50: 3.4 µM
  TGI: 12 µM
CAKI-1 renal
  GI50: 6.69 µM
  TGI: 18.8 µM
MDA-MB-231 breast
  GI50: 3.23 µM
  TGI: 9.47 µM
786-0 renal
  GI50: 3.82 µM
  TGI: 13.7 µM
NCI-H522 lung
  GI50: 2.73 µM
  TGI: 9.61 µM
MOLT-4 leukemia
  GI50: 1770 nM
  TGI: 3.16 µM
CCRF-CEM leukemia
  GI50: 1.81 µM
  TGI: 3.26 µM
MALME-3M melanoma
  GI50: 5.72 µM
  TGI: 17.5 µM
SK-MEL-2 melanoma
  GI50: 1.93 µM
  TGI: 3.76 µM
HL-60(TB) leukemia
  GI50: 2100 nM
  TGI: 3.54 µM
U251 glioblastoma
  GI50: 3.38 µM
  TGI: 10.6 µM
UACC-62 melanoma
  GI50: 2300 nM
  TGI: 5.05 µM
MDA-MB-468 breast
  GI50: 2.7 µM
  TGI: 6.92 µM
HT29 colon
  GI50: 2420 nM
  TGI: 5.77 µM
SF-295 CNS
  GI50: 3.09 µM
  TGI: 8.92 µM
SR leukemia
  GI50: 1.69 µM
  TGI: 3.06 µM
IGROV1 ovarian
  GI50: 3.93 µM
  TGI: 14.2 µM
OVCAR-5 ovarian
  GI50: 15 µM
  TGI: 28.2 µM
COLO 205 colon
  GI50: 4.51 µM
  TGI: 14.6 µM
MCF7 breast
  GI50: 2340 nM
  TGI: 6.63 µM
PC-3 prostate
  GI50: 3.58 µM
  TGI: 10.3 µM
NCI-H226 lung
  GI50: 2600 nM
  TGI: 7.19 µM
TK-10 renal
  GI50: 3.11 µM
  TGI: 9.29 µM
HCT-116 colon
  GI50: 2810 nM
  TGI: 7.43 µM
SF-268 CNS
  GI50: 3.98 µM
  TGI: 14.5 µM
RPMI-8226 leukemia
  GI50: 1670 nM
  TGI: 3.04 µM

## CCN(C(=O)c1cc(F)ccc1Oc1cncnc1N1CC2(CCN(CC3CCC(NS(=O)(=O)CC)CC3)CC2)C1)C(C)C (stereo unspecified)
SF-539 CNS
  GI50: > 100 µM
  TGI: > 100 µM
HCT-15 colon
  GI50: > 100 µM
  TGI: > 100 µM
OVCAR-4 ovarian
  GI50: 82.6 µM
  TGI: > 100 µM
MDA-MB-435 melanoma
  GI50: > 100 µM
  TGI: > 100 µM
NCI-H322M lung
  GI50: > 100 µM
  TGI: > 100 µM
ACHN renal
  GI50: > 100 µM
  TGI: > 100 µM
SK-MEL-5 melanoma
  GI50: > 100000 nM
  TGI: > 100 µM
HCC-2998 colon
  GI50: 2940 nM
  TGI: > 100 µM
M14 melanoma
  GI50: > 100 µM
  TGI: > 100 µM
OVCAR-3 ovarian
  GI50: 63.5 µM
  TGI: > 100 µM
K-562 leukemia
  GI50: > 100 µM
  TGI: > 100 µM
UACC-257 melanoma
  GI50: > 100000 nM
  TGI: > 100 µM
A498 renal
  GI50: 77.3 µM
  TGI: > 100 µM
SK-MEL-28 melanoma
  GI50: > 100000 nM
  TGI: > 100 µM
NCI-H460 NSCLC
  GI50: > 100 µM
  TGI: > 100 µM
T-47D breast
  GI50: 72.3 µM
  TGI: > 100 µM
OVCAR-8 ovarian
  GI50: > 100 µM
  TGI: > 100 µM
SN12C renal
  GI50: > 100 µM
  TGI: > 100 µM
A549 NSCLC
  GI50: > 100 µM
  TGI: > 100 µM
LOX IMVI melanoma
  GI50: > 100000 nM
  TGI: > 100 µM
SNB-19 CNS
  GI50: > 100 µM
  TGI: > 100 µM
SK-OV-3 ovarian
  GI50: > 100 µM
  TGI: > 100 µM
NCI/ADR-RES ovarian
  GI50: > 100 µM
  TGI: > 100 µM
DU-145 prostate
  GI50: > 100 µM
  TGI: > 100 µM
HOP-92 NSCLC
  GI50: 2200 nM
  TGI: 41.5 µM
HOP-62 NSCLC
  GI50: > 100 µM
  TGI: > 100 µM
RXF 393 renal
  GI50: 753 nM
  TGI: > 100 µM
KM12 colon
  GI50: > 100 µM
  TGI: > 100 µM
SW-620 colon
  GI50: > 100 µM
  TGI: > 100 µM
UO-31 renal
  GI50: > 100000 nM
  TGI: > 100 µM
NCI-H23 lung
  GI50: > 100 µM
  TGI: > 100 µM
BT-549 breast
  GI50: 92.7 µM
  TGI: > 100 µM
CAKI-1 renal
  GI50: > 100 µM
  TGI: > 100 µM
MDA-MB-231 breast
  GI50: 18.7 µM
  TGI: > 100 µM
786-0 renal
  GI50: > 100 µM
  TGI: > 100 µM
NCI-H522 lung
  GI50: 92.3 µM
  TGI: > 100 µM
MOLT-4 leukemia
  GI50: 1170 nM
  TGI: 3.67 µM
CCRF-CEM leukemia
  GI50: 10.1 µM
  TGI: 43.1 µM
MALME-3M melanoma
  GI50: > 100 µM
  TGI: > 100 µM
SK-MEL-2 melanoma
  GI50: 24.5 µM
  TGI: > 100 µM
HL-60(TB) leukemia
  GI50: > 100000 nM
  TGI: > 100 µM
U251 glioblastoma
  GI50: > 100 µM
  TGI: > 100 µM
UACC-62 melanoma
  GI50: > 100000 nM
  TGI: > 100 µM
MDA-MB-468 breast
  GI50: 65.5 µM
  TGI: > 100 µM
HT29 colon
  GI50: > 100000 nM
  TGI: > 100 µM
SF-295 CNS
  GI50: > 100 µM
  TGI: > 100 µM
SR leukemia
  GI50: 81.2 µM
  TGI: > 100 µM
IGROV1 ovarian
  GI50: > 100 µM
  TGI: > 100 µM
OVCAR-5 ovarian
  GI50: > 100 µM
  TGI: > 100 µM
COLO 205 colon
  GI50: 78.3 µM
  TGI: > 100 µM
MCF7 breast
  GI50: > 100000 nM
  TGI: > 100 µM
PC-3 prostate
  GI50: > 100 µM
  TGI: > 100 µM
NCI-H226 lung
  GI50: > 100000 nM
  TGI: > 100 µM
TK-10 renal
  GI50: > 100 µM
  TGI: > 100 µM
HCT-116 colon
  GI50: > 100000 nM
  TGI: > 100 µM
SF-268 CNS
  GI50: > 100 µM
  TGI: > 100 µM
